Test [1] deals with C6. Description: Cytotoxicity against rat C6 cells assessed as cell death after 24 to 48 hrs by MTT assay. The class given is functional, cell-based.
In test [2] the test system is C6. Nature of the test: Cytotoxicity against rat C6 cells assessed as decrease in cell number at 10 uM after 24 hrs by MTT assay. Also noted: scale not given: the % may be the effect or the level left. The class given is functional.
Test [3] relates to C6. Description: Cytotoxicity against rat C6 cells assessed as decrease in cell number at 100 uM after 48 hrs by MTT assay. Type of test: functional. Set-up: scale not given: the % may be the effect or the level left.
The test system of test [4] is C6. Description: Cytotoxicity against rat C6 cells assessed as cell death at 10 to 100 uM after 48 hrs by MTT assay. The class given is functional, cell-based.
For test [5], the system named is C6. Nature of the test: Cytotoxicity against rat C6 cells assessed as decrease in cell number at 100 uM after 24 hrs by MTT assay. Type of test: functional. Set-up: scale not given: the % may be the effect or the level left.
Test [6] concerns C6. Nature of the test: Growth stimulation of rat C6 cells at 100 uM after 24 hrs by MTT assay relative to control. Type of test: functional.
Test [7] has as its system C6. Nature of the test: Growth stimulation of rat C6 cells at 100 uM after 48 hrs by MTT assay relative to control. Type of test: functional.

Molecules are shown by their SMILES. Activity calls are given as the source filed them. The calls are words filed in the database; no cut-off is given here.

We go through 3 compounds from ChEMBL document CHEMBL2040830, “Makomotindoline from Makomotake, Zizania latifolia infected with Ustilago esculenta” (2012).

In the case of `OC[C@H]1O[C@@H](N2c3ccccc3[C@]3(O)CCO[C@H]23)[C@H](O)[C@@H](O)[C@@H]1O`, in the test with C6 [1], the result was inactive.
Regarding `OC[C@@H]1O[C@H](N2c3ccccc3[C@]3(O)CCO[C@H]23)[C@@H](O)[C@H](O)[C@H]1O`, the Activity in the test with C6 [2] was 92.4%; with C6 [3], 87.9%; in the test with C6 [5] it was 83.9%. The outcome with C6 [4] was inactive.
As to `O[C@@]12CCO[C@@H]1Nc1ccccc12`, the Activity with C6 [6] amounted to 112%; with C6 [7] it was 114.2%.
